Results published in ChEMBL document CHEMBL1142074, “In vitro activities of cloxyquin (5-chloroquinolin-8-ol) against Mycobacterium tuberculosis” (2007).
Values after ≈ are worked out from the molar mass of the structure shown.

Key:
Format in all cases: functional
[1] = tested on: Mycobacterium tuberculosis; assay: Antimycobacterial activity against Mycobacterium tuberculosis H37Ra ATCC 25177 by microplate alamar blue assay
[2] = tested on: Mycobacterium tuberculosis; assay: Antimycobacterial activity against Mycobacterium tuberculosis H37Rv ATCC 27294 by microplate alamar blue assay
[3] = tested on: Mycobacterium tuberculosis; assay: Antimycobacterial activity against Mycobacterium tuberculosis isolates from pulmonary tuberculosis patient by microplate alamar blue assay
[4] = tested on: Mycobacterium tuberculosis; assay: Antimycobacterial activity against para-aminosalicylic acid-resistant Mycobacterium tuberculosis H37Rv ATCC 35821 by microplate alamar blue assay

SMILES | MIC [1] | MIC [2] | MIC50 [3] | MIC90 [3] | MIC [4]
Oc1c(Br)cc(Br)c2cccnc12 [BROXYQUINOLINE] | 6.25 µg/mL (≈ 20.6 µM) |  |  |  | 
Cc1ccc2c(Cl)cc(Cl)c(O)c2n1 [CHLORQUINALDOL] | 0.38 µg/mL (≈ 1.67 µM) |  |  |  | 
Oc1c(I)cc(Cl)c2cccnc12 [CLIOQUINOL] | 6.25 µg/mL (≈ 20.5 µM) |  |  |  | 
Oc1ccc(Cl)c2cccnc12 [CLOXYQUIN] | 0.125 µg/mL (≈ 0.696 µM) | 0.125 µg/mL (≈ 0.696 µM) | 0.125 µg/mL (≈ 0.696 µM) | 0.25 µg/mL (≈ 1.39 µM) | 0.125 µg/mL (≈ 0.696 µM)
Oc1cccc2cccnc12 [OXYQUINOLINE] | 0.125 µg/mL (≈ 0.861 µM) |  |  |  | 
